18 compounds from patent US12344603B2 (Genentech, Inc., priority 2020, dated 2025) can be followed below.

The target in this assay is IRE1α (Homo sapiens (Human), UniProt O75460, D688N). The assay is described as follows: IRE1α TR-FRET competition binding assay (IRE1α HTRF). The settings on record: TR-FRET competition binding to kinase domain of IRE1α. In outline:
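Competition of compounds against an Alexa fluor 647 ATP-site probe (2 nM final) for the His-tagged kinase domain (0.25 nM final), detected via 2 nM Eu anti-His antibody by TR-FRET, 665 and 615 nm emission. Protein–antibody premix 1 h, 4° C; reaction 1 h, room temperature, pH 7.5 HEPES buffer.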

Counter-ions that a name gives are not always drawn.

Chain of IRE1α (O75460 547-977 D688N): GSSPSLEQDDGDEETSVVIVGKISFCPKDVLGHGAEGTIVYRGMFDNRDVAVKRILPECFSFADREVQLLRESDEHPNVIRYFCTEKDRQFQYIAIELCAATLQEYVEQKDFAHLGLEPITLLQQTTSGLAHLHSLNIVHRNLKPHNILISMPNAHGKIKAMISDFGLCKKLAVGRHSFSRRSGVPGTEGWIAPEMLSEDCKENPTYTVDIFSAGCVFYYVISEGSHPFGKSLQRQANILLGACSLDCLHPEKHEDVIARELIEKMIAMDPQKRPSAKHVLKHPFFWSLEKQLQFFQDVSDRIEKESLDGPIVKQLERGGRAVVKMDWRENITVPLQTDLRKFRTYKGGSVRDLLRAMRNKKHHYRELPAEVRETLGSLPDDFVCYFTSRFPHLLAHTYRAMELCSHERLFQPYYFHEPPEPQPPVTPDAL

For orientation: IC50 means the concentration that gives 50% inhibition. Read a high IC50 as a need for much substance. `CC(C)n1c(=O)c(-c2cc(F)c(NS(=O)(=O)Cc3ccc(C(F)F)cc3)c(F)c2)cc2cnc(N[C@H]3CC[C@H](N(C)C)CC3)nc21` [Compound 125, 1-(4-(Difluoromethyl)phenyl)-N-(4-(2-(((1r,4r)-4-(dimethylamino)cyclohexyl)amino)-8-isopropyl-7-oxo-7,8-dihydropyrido[2,3-d]pyrimidin-6-yl)-2,6-difluorophenyl)methanesulfonamide] had an IC50 of 0.19 nM.
Take `CC(C)n1c(=O)c(-c2ccc(NS(=O)(=O)Cc3ccccc3)c(F)c2)nc2cnc(N[C@H]3CC[C@H](N(C)C)CC3)nc21` [Compound 68, N-(4-(2-(((1r,4r)-4-(Dimethylamino)cyclohexyl)amino)-8-isopropyl-7-oxo-7,8-dihydropteridin-6-yl)-2-fluorophenyl)-1-phenylmethanesulfonamide]: the IC50 was 0.13 nM.
For `CCC(C)n1c(=O)c(-c2ccc(NS(=O)(=O)Cc3ccccc3F)c(F)c2)cc2cnc(N[C@@H]3CNC[C@@H](F)C3)nc21` (single isomer, unassigned) [Compound 202B, hydrochloride] the value was 0.26 nM; for `CC(C)n1c(=O)c(-c2cc(F)c(NC(=O)C3CC3F)c(F)c2F)cc2cnc(N[C@H]3CC[C@H](N(C)C)CC3)nc21` (single isomer, unassigned) [Compound 98A, N-(4-(2-(((1r,4r)-4-(Dimethylamino)cyclohexyl)amino)-8-isopropyl-7-oxo-7,8-dihydropyrido[2,3-d]pyrimidin-6-yl)-2,3,6-trifluorophenyl)-2-fluorocyclopropane-1-carboxamide], 2.8 nM.
For `CC(C)n1c(=O)c(-c2ccc(NS(=O)(=O)CCC(F)(F)F)nc2)cc2cnc(N[C@@H]3CNC[C@@H](F)C3)nc21` [Example 216, 3,3,3-trifluoro-N-(5-(2-(((3S,5S)-5-fluoro-piperidin-3-yl)amino)-8-isopropyl-7-oxo-7,8-dihydropyrido[2,3-d]-pyrimidin-6-yl)pyridin-2-yl)propane-1-sulfon-amide] the value was 1.7 nM; for `CC(C)n1c(=O)c(-c2cc(F)c(NS(=O)(=O)Cc3ccn(C)n3)c(F)c2F)cc2cnc(N[C@@H]3CNC[C@@H](F)C3)nc21` [Compound 38, 1-(1-Methyl-1H-pyrazol-3-yl)-N-(2,3,6-trifluoro-4-(2-(((3S,5S)-5-fluoropiperidin-3-yl)amino)-8-isopropyl-7-oxo-7,8-dihydropyrido[2,3-d]pyrimidin-6-yl)phenyl)methanesulfonamide], 0.39 nM.
As for `Cc1nc(NS(=O)(=O)c2ccc(F)cc2)ccc1-c1cc2cnc(N[C@H]3CC[C@H](N(C)C)CC3)nc2n(C(C)C)c1=O` [Compound 132, N-(5-(2-(((1r,4r)-4-(Dimethylamino)cyclohexyl)amino)-8-isopropyl-7-oxo-7,8-dihydropyrido[2,3-d]pyrimidin-6-yl)-6-methylpyridin-2-yl)-4-fluorobenzenesulfonamide], the IC50 was 0.52 nM.
Compound `O=c1c(-c2ccc(NS(=O)(=O)Cc3ccccc3)c(F)c2F)cc2cnc(N[C@@H]3CNC[C@@H](F)C3)nc2n1C1CCCC1` [Compound 18, N-(4-(8-Cyclopentyl-2-(((3S,5S)-5-fluoropiperidin-3-yl)amino)-7-oxo-7,8-dihydropyrido[2,3-d]pyrimidin-6-yl)-2,3-difluorophenyl)-1-phenylmethanesulfonamide] registered an IC50 of 0.41 nM.
Turning to `CC(C)n1c(=O)c(-c2ccc(NS(=O)(=O)c3ccccc3)nc2)cc2cnc(N[C@H]3CC[C@H](N(C)C)CC3)nc21` [Compound 106, N-(5-(2-(((1r,4r)-4-(Dimethylamino)cyclohexyl)amino)-8-isopropyl-7-oxo-7,8-dihydropyrido[2,3-d]pyrimidin-6-yl)pyridin-2-yl)benzenesulfonamide], the IC50 is 0.15 nM.
As for `CC(C)n1c(=O)c(-c2ccc(NS(=O)(=O)CC3(C(F)F)CCCC3)c(F)c2)nc2cnc(N[C@H]3CC[C@H](N(C)C)CC3)nc21` [Example 266, 1-[1-(Difluoromethyl)cyclopentyl]-N-[4-[2-[[4-(dimethylamino)cyclohexyl]amino]-8-isopropyl-7-oxo-pteridin-6-yl]-2-fluoro-phenyl]methanesulfonamide], the IC50 came to 0.2 nM.
For `CC(C)n1c(=O)c(-c2ccc(NS(=O)(=O)c3ccccc3Cl)nc2)nc2cnc(N[C@H]3CC[C@H](N(C)C)CC3)nc21` [Compound 178, 2-Chloro-N-(5-(2-(((1r,4r)-4-(dimethylamino)cyclohexyl)amino)-8-isopropyl-7-oxo-7,8-dihydropteridin-6-yl)pyridin-2-yl)benzenesulfonamide] the value was 0.26 nM; for `CC(C)n1c(=O)c(-c2ccc(NS(=O)(=O)CC3CC4(C3)CC4(F)F)c(F)c2)nc2cnc(N[C@H]3CC[C@H](N(C)C)CC3)nc21` (stereo partly drawn) [Example 262, 1-(2,2-Difluorospiro[2.3]hexan-5-yl)-N-[4-[2-[[4-(dimethylamino)cyclohexyl]amino]-8-isopropyl-7-oxo-pteridin-6-yl]-2-fluoro-phenyl]methanesulfonamide], 0.3 nM; for `Cn1c(=O)c(-c2ccc(NS(=O)(=O)Cc3ccccc3)c(F)c2F)cc2cnc(N[C@@H]3CNC[C@@H](F)C3)nc21` [Compound 2, N-(2,3-Difluoro-4-(2-(((3S,5S)-5-fluoropiperidin-3-yl)amino)-8-methyl-7-oxo-7,8-dihydropyrido[2,3-d]pyrimidin-6-yl)phenyl)-1-phenylmethanesulfonamide], 2.1 nM.
The compound `CC(C)n1c(=O)c(-c2cc(F)c(NS(=O)(=O)CCC(F)(F)F)c(F)c2)cc2cnc(NC3CC[C@H](N(C)C)C(F)C3)nc21` (single isomer, unassigned) [Compound 118B, N-(4-(2-((4-(Dimethylamino)-3-fluorocyclohexyl)amino)-8-isopropyl-7-oxo-7,8-dihydropyrido[2,3-d]pyrimidin-6-yl)-2,6-difluorophenyl)-3,3,3-trifluoropropane-1-sulfonamide] showed an IC50 of 0.32 nM.
Compound `CCCS(=O)(=O)Nc1ccc(-c2cc3cnc(N[C@@H]4CNC[C@@H](F)C4)nc3n(CC)c2=O)c(F)c1F` [Compound 13, N-(4-(8-Ethyl-2-(((3S,5S)-5-fluoropiperidin-3-yl)amino)-7-oxo-7,8-dihydropyrido[2,3-d]pyrimidin-6-yl)-2,3-difluorophenyl)propane-1-sulfonamide] came in with an IC50 of 8.3 nM.
`CC(C)n1c(=O)c(-c2ccc(NS(=O)(=O)N3CCCC3)c(F)c2)nc2cnc(N[C@@H]3CNC[C@@H](F)C3)nc21` [Compound 163, N-(2-Fluoro-4-(2-(((3S,5S)-5-fluoropiperidin-3-yl)amino)-8-isopropyl-7-oxo-7,8-dihydropteridin-6-yl)phenyl)pyrrolidine-1-sulfonamide]: the IC50 worked out at 0.97 nM.
Compound `CCC(F)(F)CS(=O)(=O)Nc1ccc(-c2nc3cnc(N[C@@H]4CNC[C@@H](F)C4)nc3n(C(C)C)c2=O)cc1F` [Compound 83, 2,2-Difluoro-N-[2-fluoro-4-[2-[[(3S,5S)-5-fluoro-3-piperidyl]amino]-8-isopropyl-7-oxo-pteridin-6-yl]phenyl]butane-1-sulfonamide] had an IC50 of 0.4 nM.
To `CC(C)n1c(=O)c(-c2ccc(NS(=O)(=O)CCC(C)(F)F)nc2)nc2cnc(N[C@H]3CC[C@H](N(C)C)CC3)nc21` [Example 238, N-[5-[2-[[4-(Dimethylamino)cyclohexyl]amino]-8-isopropyl-7-oxo-pteridin-6-yl]-2-pyridyl]-3,3-difluoro-butane-1-sulfonamide] belongs 0.4 nM.
